{"source": "patent EP1398318A1", "about": "“Process for conducting chemical reactions in a liquid phase in the presence of a catalyst and a 1,3-substituted imidazolium salt” (BASF AKTIENGESELLSCHAFT, priority 2002, dated 2004)", "origin": "cited, not measured here", "biological_target": "menschlichen Myeloperoxidase (Homo sapiens, UniProt P05164)", "sequence (P05164 279-745 limits assumed)": "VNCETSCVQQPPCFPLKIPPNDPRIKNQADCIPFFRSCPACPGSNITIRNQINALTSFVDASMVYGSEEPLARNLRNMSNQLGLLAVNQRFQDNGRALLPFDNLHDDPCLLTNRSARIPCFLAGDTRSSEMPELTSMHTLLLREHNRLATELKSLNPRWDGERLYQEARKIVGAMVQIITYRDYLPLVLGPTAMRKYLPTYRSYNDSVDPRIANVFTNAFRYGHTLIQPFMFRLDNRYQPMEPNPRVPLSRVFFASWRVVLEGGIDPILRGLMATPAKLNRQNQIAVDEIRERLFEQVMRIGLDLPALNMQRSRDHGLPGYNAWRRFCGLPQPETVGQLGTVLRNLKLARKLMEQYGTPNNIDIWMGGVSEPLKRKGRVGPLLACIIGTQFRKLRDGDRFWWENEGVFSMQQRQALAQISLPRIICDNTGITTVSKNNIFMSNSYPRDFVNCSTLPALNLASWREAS", "sequence (P05164 165-278 limits assumed)": "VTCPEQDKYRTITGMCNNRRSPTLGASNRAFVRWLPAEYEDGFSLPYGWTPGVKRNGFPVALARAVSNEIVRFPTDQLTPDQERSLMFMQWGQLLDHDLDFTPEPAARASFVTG", "details": "competitive with hydrogen peroxide at the active centre"}
{"smiles": "Cl", "note": "[Chlorid]", "values": [{"measurement": "bindet kompetitiv zu Wasserstoffperoxid am aktiven Zentrum des Enzyms", "value": "inhibierend"}]}
